Data as given in patent publication US9133158B2, “Bicyclic dihydroisoquinoline-1-one derivatives” (Hoffmann-La Roche Inc., priority 2011, dated 2015).

How the values were obtained:
human CYP11B1 = molecular target: T1, human CYP11B1 (Homo sapiens, UniProt P15538); test: G-402 cellular enzyme assay, human CYP11B1 (cortisol release, HTRF); assay type: cell-based; details: G-402 cells, 1 μM Deoxycortisol
T1 construct: expressed in transfected cells
T1 sequence (P15538 25-503): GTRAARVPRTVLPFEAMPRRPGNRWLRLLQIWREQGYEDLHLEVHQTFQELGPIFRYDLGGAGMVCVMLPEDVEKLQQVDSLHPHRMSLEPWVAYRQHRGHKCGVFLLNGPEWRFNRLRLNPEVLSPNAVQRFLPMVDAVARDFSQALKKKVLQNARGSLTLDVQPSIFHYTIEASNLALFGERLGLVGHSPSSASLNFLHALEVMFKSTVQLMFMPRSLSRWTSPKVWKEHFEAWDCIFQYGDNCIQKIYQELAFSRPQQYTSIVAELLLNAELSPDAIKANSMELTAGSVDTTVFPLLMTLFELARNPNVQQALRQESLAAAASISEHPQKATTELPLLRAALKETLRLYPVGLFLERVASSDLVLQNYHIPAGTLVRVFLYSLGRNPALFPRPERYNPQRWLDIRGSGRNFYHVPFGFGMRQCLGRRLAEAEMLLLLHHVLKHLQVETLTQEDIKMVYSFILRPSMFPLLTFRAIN
In short: (§1)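 Inhibition of steroid release was taken as enzyme inhibition. CYP11B1 assays used 1 μM deoxycortisol with cortisol detection, CYP11B2 assays 1 μM deoxycorticosterone with aldosterone detection, both by HTRF after 16 h in stable G-402 cells; EC50 from least-squares MMF fit.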

human CYP11B2 = molecular target: T2, human CYP11B2 (Homo sapiens, UniProt P19099); test: G-402 cellular enzyme assay, human CYP11B2 (aldosterone release, HTRF); assay type: cell-based; details: G-402 cells, 1 μM Deoxycorticosterone
T2 construct: expressed in transfected cells
T2 sequence (P19099 25-503): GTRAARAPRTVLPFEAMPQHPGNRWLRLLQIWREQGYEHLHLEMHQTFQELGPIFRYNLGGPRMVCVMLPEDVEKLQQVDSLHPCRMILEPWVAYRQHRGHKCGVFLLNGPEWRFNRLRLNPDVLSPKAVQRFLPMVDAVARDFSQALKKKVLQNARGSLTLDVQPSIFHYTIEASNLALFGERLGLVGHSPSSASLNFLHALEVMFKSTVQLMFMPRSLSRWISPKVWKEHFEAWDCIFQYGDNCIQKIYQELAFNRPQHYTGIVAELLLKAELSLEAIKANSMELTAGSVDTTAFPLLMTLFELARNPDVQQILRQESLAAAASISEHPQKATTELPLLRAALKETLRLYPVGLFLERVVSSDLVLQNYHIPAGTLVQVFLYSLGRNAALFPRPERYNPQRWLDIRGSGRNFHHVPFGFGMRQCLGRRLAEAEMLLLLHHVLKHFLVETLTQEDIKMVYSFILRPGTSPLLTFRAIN
In short: as §1

Compound | EC50 (human CYP11B1) [nM] | EC50 (human CYP11B2) [nM]
Cn1ncc2c(N3Cc4cc(Cl)ccc4C3=O)cncc21 [Example 116, 5-Chloro-2-(1-methyl-1H-pyrazolo[3,4-c]pyridin-4-yl)-2,3-dihydro-isoindol-1-one] | 5130 | 132
O=C1c2ccc(Cl)cc2CN1c1cncc2c1CCCC2O (stereo not drawn) [Example 117, 5-Chloro-2-(8-hydroxy-5,6,7,8-tetrahydro-isoquinolin-4-yl)-2,3-dihydro-isoindol-1-one] | 894 | 127
CC1c2cc(Cl)ccc2C(=O)N1c1cccnc1 (stereo not drawn) [Example 118, 5-Chloro-3-methyl-2-pyridin-3-yl-2,3-dihydro-isoindol-1-one] | 1250 | 123
COc1cncc(N2C(=O)c3ccc(Cl)cc3C2C)c1 (stereo not drawn) [Example 120, 5-Chloro-2-(5-methoxy-pyridin-3-yl)-3-methyl-2,3-dihydro-isoindol-1-one] | 207 | 24.7
Cc1ccncc1N1C(=O)c2ccc(Cl)cc2C1C (stereo not drawn) [Example 121, 5-Chloro-3-methyl-2-(4-methyl-pyridin-3-yl)-2,3-dihydro-isoindol-1-one] | 39 | 7.1
CC(O)c1cncc(N2C(=O)c3ccc(Cl)cc3C2C)c1 (stereo not drawn) [Example 122, 5-Chloro-2-[5-(1-hydroxy-ethyl)-pyridin-3-yl]-3-methyl-2,3-dihydro-isoindol-1-one] | 180 | 42.3
CC1c2cc(Cl)ccc2C(=O)N1c1cncc(F)c1 (stereo not drawn) [Example 123, 5-Chloro-2-(5-fluoro-pyridin-3-yl)-3-methyl-2,3-dihydro-isoindol-1-one] | 7730 | 122
O=C1c2ccc(Cl)cc2C(Cc2ccccc2)N1c1cccnc1 (stereo not drawn) [Example 124, 3-Benzyl-5-chloro-2-pyridin-3-yl-2,3-dihydro-isoindol-1-one] | 225 | 1070
CCC1c2cc(Cl)ccc2C(=O)N1c1cccnc1 (stereo not drawn) [Example 125, 5-Chloro-3-ethyl-2-pyridin-3-yl-2,3-dihydro-isoindol-1-one] | 3340 | 121
CCC1c2cc(Cl)ccc2C(=O)N1c1cncc(F)c1 (stereo not drawn) [Example 126, 5-Chloro-3-ethyl-2-(5-fluoro-pyridin-3-yl)-2,3-dihydro-isoindol-1-one] | 3560 | 37.9
CCC1c2cc(Cl)ccc2C(=O)N1c1cncc(OC)c1 (stereo not drawn) [Example 127, 5-Chloro-3-ethyl-2-(5-methoxy-pyridin-3-yl)-2,3-dihydro-isoindol-1-one] | 266 | 54.5
CC1(C)c2cc(Cl)ccc2C(=O)N1c1cccnc1 [Example 128, 5-Chloro-3,3-dimethyl-2-pyridin-3-yl-2,3-dihydro-isoindol-1-one] | 4280 | 108
CC1(C)c2cc(Cl)ccc2C(=O)N1c1cncc(F)c1 [Example 129, 5-Chloro-2-(5-fluoro-pyridin-3-yl)-3,3-dimethyl-2,3-dihydro-isoindol-1-one] | 3160 | 63.6
COc1cncc(N2C(=O)c3ccc(Cl)cc3C2(C)C)c1 [Example 130, 5-Chloro-2-(5-methoxy-pyridin-3-yl)-3,3-dimethyl-2,3-dihydro-isoindol-1-one] | 240 | 15.5
CC1(C)c2cc(Cl)ccc2C(=O)N1c1cncc(OC(F)F)c1 [Example 131, 5-Chloro-2-(5-difluoromethoxy-pyridin-3-yl)-3,3-dimethyl-2,3-dihydro-isoindol-1-one] | 264 | 11.9
CC(O)c1cncc(N2C(=O)c3ccc(Cl)cc3C2(C)C)c1 (stereo not drawn) [Example 132, 5-Chloro-2-[5-(1-hydroxy-ethyl)-pyridin-3-yl]-3,3-dimethyl-2,3-dihydro-isoindol-1-one] | 527 | 37.8
CC1(C)c2cc(Cl)ccc2C(=O)N1c1cncc(CO)c1 [Example 133, 5-Chloro-2-(5-hydroxymethyl-pyridin-3-yl)-3,3-dimethyl-2,3-dihydro-isoindol-1-one] | 1370 | 98.6
Cc1nccn1Cc1cncc(N2C(=O)c3ccc(Cl)cc3C2(C)C)c1 [Example 134, 5-Chloro-3,3-dimethyl-2-[5-(2-methyl-imidazol-1-ylmethyl)-pyridin-3-yl]-2,3-dihydro-isoindol-1-one] | 424 | 18.6
O=C1c2ccc(Cl)cc2CCN1c1cncc(N2CC[C@@H](O)C2)c1 [Example 137, 6-Chloro-2-[5-((R)-3-hydroxy-pyrrolidin-1-yl)-pyridin-3-yl]-3,4-dihydro-2H-isoquinolin-1-one] | 108 | 10.1
COc1cncc(N2CCc3nc(O)ccc3C2=O)c1 [Example 139, 2-Hydroxy-6-(5-methoxy-pyridin-3-yl)-7,8-dihydro-6H-[1,6]naphthyridin-5-one] | 11200 | 953
O=C1c2ccc(Cl)cc2CCN1c1cncc(Cn2ccnc2)c1 [Example 140, 6-Chloro-2-(5-imidazol-1-ylmethyl-pyridin-3-yl)-3,4-dihydro-2H-isoquinolin-1-one] | 70.4 | 11.8
CC(C)c1nccn1Cc1cncc(N2CCc3cc(Cl)ccc3C2=O)c1 [Example 141, 6-Chloro-2-[5-(2-isopropyl-imidazol-1-ylmethyl)-pyridin-3-yl]-3,4-dihydro-2H-isoquinolin-1-one] | 1310 | 40.5

Other lines, results leading:

EC50 (human CYP11B1) [nM] | EC50 (human CYP11B2) [nM] | Compound
1350 | 229 | CC(C)c1nccn1Cc1cncc(N2Cc3cc(Cl)ccc3C2=O)c1 [Example 109, 5-Chloro-2-[5-(2-isopropyl-imidazol-1-ylmethyl)-pyridin-3-yl]-2,3-dihydro-isoindol-1-one]
1280 | 184 | O=C1c2ccc(Cl)cc2CN1c1cncc(Cn2cncn2)c1 [Example 110, 5-Chloro-2-(5-[1,2,4]triazol-1-ylmethyl-pyridin-3-yl)-2,3-dihydro-isoindol-1-one]
923 | 64.2 | Cc1nccn1Cc1cncc(N2Cc3cc(Cl)ccc3C2=O)c1 [Example 111, 5-Chloro-2-[5-(2-methyl-imidazol-1-ylmethyl)-pyridin-3-yl]-2,3-dihydro-isoindol-1-one]
12000 | 674 | O=C1CCCN1Cc1cncc(N2Cc3cc(Cl)ccc3C2=O)c1 [Example 112, 5-Chloro-2-[5-(2-oxo-pyrrolidin-1-ylmethyl)-pyridin-3-yl]-2,3-dihydro-isoindol-1-one]
1360 | 342 | COC[C@@H]1CCCN1Cc1cncc(N2Cc3cc(Cl)ccc3C2=O)c1 [Example 113, 5-Chloro-2-[5-((S)-2-methoxymethyl-pyrrolidin-1-ylmethyl)-pyridin-3-yl]-2,3-dihydro-isoindol-1-one]
12800 | 424 | O=C1CCCCN1Cc1cncc(N2Cc3cc(Cl)ccc3C2=O)c1 [Example 114, 5-Chloro-2-[5-(2-oxo-piperidin-1-ylmethyl)-pyridin-3-yl]-2,3-dihydro-isoindol-1-one]
13500 | 682 | CCS(=O)(=O)NCc1cncc(N2Cc3cc(Cl)ccc3C2=O)c1 [Example 115, Ethanesulfonic acid [5-(5-chloro-1-oxo-1,3-dihydro-isoindol-2-yl)-pyridin-3-ylmethyl]-amide]
523 | 93.1 | O=C1c2ccc(Cl)cc2CCN1c1cncc(N2CCC[C@H]2CO)c1 [Example 135, 6-Chloro-2-[5-((S)-2-hydroxymethyl-pyrrolidin-1-yl)-pyridin-3-yl]-3,4-dihydro-2H-isoquinolin-1-one]
2660 | 102 | O=C1c2ccc(Cl)cc2CN1c1cncc(N2CCC[C@H]2CO)c1 [Example 136, 5-Chloro-2-[5-((S)-2-hydroxymethyl-pyrrolidin-1-yl)-pyridin-3-yl]-2,3-dihydro-isoindol-1-one]
193 | 16.2 | O=C1c2ccc(Cl)cc2CN1c1cncc(N2CC[C@@H](O)C2)c1 [Example 138, 5-Chloro-2-[5-((R)-3-hydroxy-pyrrolidin-1-yl)-pyridin-3-yl]-2,3-dihydro-isoindol-1-one]
981 | 80.2 | Cc1nccn1Cc1cncc(N2CCc3cc(Cl)ccc3C2=O)c1 [Example 142, 6-Chloro-2-[5-(2-methyl-imidazol-1-ylmethyl)-pyridin-3-yl]-3,4-dihydro-2H-isoquinolin-1-one]
